Results taken from US20200237759A1, “DOSAGE REGIME AND METHOD FOR TREATING PULMONARY ARTERIAL HYPERTENSION” (Altavant Sciences GmbH, priority 2019, published 2020).
Entries after “also recorded” stand apart in the source; their conditions may differ.

Experiments:
[1] = Part 1 SAD urine pharmacokinetics (urinary excretion, renal clearance); assay type: in vivo, human
Description: Renal clearance of KAR5417 was calculated from the area under the plasma time concentration curve (AUC0-96) for KAR5417 and the amount of KAR5417 recovered in urine (Table 21).

serum 5-HT = test: Part 2 MAD biomarker: serum 5-HT change from Day 1; assay type: in vivo, human
Description: Biomarkers were to be evaluated in Part 2 by measuring concentrations of serotonin (5-hydroxytryptamine [5-HT]) in serum and 5-hydroxyindoleacetic acid (5-HIAA) in plasma and urine. As well, the relationship of biomarkers to PK parameters was to be evaluated.
The biomarker analysis was to be based on the Biomarker Population (all subjects with evaluable biomarker measurements at baseline [Day 1 predose] and at least one after dosing [Day 7 or Day 14]).
Biomarker data were to be collected only in Part 2. The following biomarkers were to be analyzed: • Serum 5-HT • Plasma 5-HIAA • Urine 5-HIAA/24 hours (as measured, adjusted, estimated, and per gram creatinine)
Linear regression was to be performed using biomarker changes, absolute and relative (%), from Day 1, at predose on Day 7 or Day 14 versus AUC0-24, Cmax, and Cmin in corresponding study days. The slopes and corresponding 95% confidence intervals (CIs) were to be tabulated.
Summary statistics (mean, standard deviation [SD], median, minimum [Min], and maximum [Max]) were to be tabulated for each biomarker, by Cohort, with absolute and relative (%) changes from Day 1 predose.
The values were to be tabulated with P values testing whether the difference of changes was equal to 0.
The biomarker portion of the study was conducted in Part 2 MAD using the Biomarker Population. The biomarkers evaluated were serum 5-HT and plasma 5-HIAA, as well as urine 5-HIAA/24 hours (as measured, adjusted, estimated, and per gram creatinine). Urinary 5-HIAA was determined by a validated (21 C.F.R. 58, GLP-compliant) method using liquid chromatographic separation and tandem mass spectrometry detection.
The Biomarker Population consisted of all subjects with evaluable baseline (Day 1 predose) and at least one postdose (Day 7 or Day 14) biomarker measurements.
Biomarker data were analyzed for each KAR5585 dose separately, for all KAR5585 doses pooled, and for all placebo subjects pooled. […]

[2] = KAR5585 700 mg single oral dose

With Nc1nc(O[C@H](c2ccc(Cl)cc2-c2ccccc2)C(F)(F)F)cc(N2CCC3(CC2)CN[C@H](C(=O)O)C3)n1 [KAR5417, (S)-8-(2-amino-6-((R)-1-(5-chloro-[1,1′-biphenyl]-2-yl)-2,2,2-trifluoroeth-oxy)pyrimidin-4-yl)-2,8-diazaspiro[4.5]decane-3-carboxylic acid] the “highest amount excreted in urine, of the dose” value ([1]; 400 mg fed Cohort (Cohort 3B)) was 0.331%, the “Plasma AUC0-96 Mean” value ([1]; KAR5585 100 mg single oral dose) was 889 ng·h/mL and the “Plasma AUC0-96 Mean” value ([1]; KAR5585 400 mg single oral dose, fasted) was 3630 ng·h/mL. For the same compound, the “Plasma AUC0-96 Mean” value ([1]; KAR5585 400 mg single oral dose, fed) was 6590 ng·h/mL, the “CLR Mean” value [1, 2] was 191 mL/h and the “Plasma AUC0-96 Mean” value [1, 2] was 5990 ng·h/mL. For the same compound, the “CLR Mean” value ([1]; KAR5585 1200 mg single oral dose) was 157 mL/h, the “correlation of change from baseline in serum 5-HT with AUC0-24, Cmax, C12 or AUC0-12” value (serum 5-HT; Day 7) was “no significant correlations” and the “correlation of change from baseline in serum 5-HT with AUC0-24, Cmax, C12 or AUC0-12” value (serum 5-HT; Day 14) was “correlated”.

For CCOC(=O)[C@@H]1CC2(CCN(c3cc(O[C@H](c4ccc(Cl)cc4-c4ccccc4)C(F)(F)F)nc(N)n3)CC2)CN1 [KAR5585, (S)-ethyl 8-(2-amino-6-((R)-1-(5-chloro-[1,1′-biphenyl]-2-yl)-2,2,2-trifluoroethoxy)pyrimidin-4-yl)-2,8-diazaspiro[4.5]decane-3-carboxylate], the “amount excreted (Ae) in urine, of the administered dose” value ([1]; single oral KAR5585, all dose levels) was “less than 0.004%”, the “quantifiability in urine samples” value ([1]; single oral KAR5585, almost all subjects) was “could not be quantified in urine samples; also recorded: not quantifiable in urine in almost all subjects” and the “mean difference of percent changes from Day 1 in serum 5-HT compared to placebo” value (serum 5-HT; Day 7, 200 mg fed dose group) was “statistically significant”.
